Measured values from PMC7104285, “Enzymatic Degradation of p-Nitrophenyl Esters, Polyethylene Terephthalate, Cutin, and Suberin by Sub1, a Suberinase Encoded by the Plant Pathogen Streptomyces scabies” (Microbes and Environments, 2020).

System: T1, Sub1
T1 construct: signal peptide removed; pET-30a(+) NcoI/XhoI, His6-tagged (tag kept), expressed in E. coli SHuffle T7
Test: spectrophotometric p-nitrophenol release at […] nm, Michaelis-Menten fit
Type: biochemical, Streptomyces scabiei
Details: Tris-HCl 20 mM, pH 7.5, room temperature; Triton X-100 (0.5%) apparently present

SMILES: CCCC(=O)Oc1ccc([N+](=O)[O-])cc1 [p-nitrophenyl butyrate]
- Km: 570 ± 40 µM
